# From PMC6030093, “Discovery of peptide probes to modulate oxytocin-type receptors of insects” (Scientific Reports, 2018)
# “Also recorded” adds a separate entry of the source. Positions of bridges follow the written chain, without caps; N, C: chain ends. No end group written: not given here.
# B1: inotocin (peptide)
# peptide: CLITNCPRG-NH2
# modifications: disulfide 1-6 (inferred)
# B2: kalata B7 (peptide)
# peptide: cyclo(GLPVCGETCTLGTCYTQGCTCSWPICKRN)
# modifications: disulfide (positions not given here); also: oxidized, disulfide pairing not given here
# Columns and labels:
# [1] = tested on: T. castaneum inotocin receptor; conditions: initial characterisation of the T. castaneum receptor; cited from earlier work
# Source text: In parallel to characterising the inotocin receptor activity of kalata B7, we sought to identify an antagonist peptide. Our recent study with the L. niger inotocin peptide-receptor system[11] further emphasised the structural homology shared between inotocin receptors and human oxytocin/vasopressin receptors (Fig. 2, Table 1). […] Given this homology, we were interested in the ability of the oxytocin/V1a receptor anta ...
# [2] = tested on: T. castaneum inotocin receptor; assay: IP1 accumulation, agonist mode (T. castaneum inotocin receptor); type: cell-based, Tribolium castaneum
# Source text: (§1) The T. castaneum receptor gene was kindly provided by Yoonseong Park (Kansas State University)[8], whereas the L. niger inotocin receptor gene had been cloned and sequenced as per Di Giglio et al.[11]. Both receptor constructs were subsequently cloned into the pEGFP-N1 expression plasmid, generating C-terminal EGFP fusion receptor proteins. Receptors were expressed in HEK293 cells (ATCC, CRL 1573) via transfection using the Lipofectamine 2000® transfection reagent. The use of mammalian cell lines to study the receptors of insects and other invertebrate species, in the same vain as orphan receptors from mammalian genomes, is considered a standard procedure. Various studies have utilized this approach[8],[9],[11]. Whilst such mammalian cell lines may not completely mimic insect cell biology, GPCRs and their signalling is highly homologous across the animal kingdom; it would be unlikely that the insect receptors would mis-fold in a mammalian cell line. Nevertheless, during assay optimization we routinely monitored surface expression of GFP-tagged receptors, and we only proceeded to pharmacological assays, if the receptor localized at the cell membrane. Moreover, most biochemical cell-based functional assays are optimized for mammalian cells. Whilst it is possible that insect cells could be utilized for these assays, it is unknown whether they endogenously express inotocin receptors. […] Accordingly, mammalian cells were cultured in DMEM supplemented with 10% FBS and penicillin/streptomycin (100 U mL^−1) and plated in 6-well plates prior to transfection. When cells had reached confluency, cells were transfected as per the manufacturer’s protocol with 2.5 µg per well of each respective receptor construct using a DNA:Lipofectamine 2000® ratio of 1:3 prepared in serum-free DMEM. After 4–6 h, cells were dissociated by trituration and replated into white opaque 384-well plates (CellStar®, Greiner, Kremsmünster, Austria) at approximately 10,000 cells per well. Cells were cultured for approximately 38–48 h in a humidified incubator at 37 °C and an atmosphere of 5% CO2, and then assayed for second messenger production. Verification of receptor expression was assessed via microscopic examination of membrane localised GFP fluorescence.
# (§2) Quantitative measurements of receptor-mediated inositol 1-phosphate (IP1) were performed by competitive immunoassay utilising the IP-One assay kit (CisBio, France). HEK293 cells were prepared as described above and then assayed as per the manufacturer’s protocol. Briefly, at the time of assay, the culture media was removed from cells, and then replaced with IP-One stimulation buffer (HEPES 10 mM, CaCl2 1 mM, MgCl2 0.5 mM, KCl 4.2 mM, NaCl 146 mM, glucose 5.5 mM, LiCl 50 mM, pH 7.4). […] The stimulation was terminated by lysis and the simultaneous addition of homogenous time-resolved fluorescence resonance energy transfer reagents. […] Fluorescence emission measurements at 620 nm and 665 nm were performed using a FlexStation3 plate reader (Molecular Devices, Sunnyvale, CA) or Spark Multimode plate reader (Tecan, Männedorf, Switzerland) at an excitation wavelength of 340 nm. Results were analysed as a ratio of fluorescence intensities of 665 nm to 620 nm.
# (§3) Data from cellular assays were analysed using GraphPad Prism 7.03 (GraphPad Software, San Diego). […]
# [3] = tested on: L. niger inotocin receptor; assay: IP1 accumulation, agonist mode (L. niger inotocin receptor); type: cell-based, Lasius niger; conditions: for Emax / LogEC50: HEK293 cells expressing L. niger receptor (C-terminal EGFP fusion), IP-One HTRF assay, mean ± S.E.M. from at least three independent experiments in triplicate; for Emax: 1 h at 37 °C; for LogEC50: pH 7.4, 1 h at 37 °C
# Source text: as §1
# Quantitative measurements of receptor-mediated inositol 1-phosphate (IP1) were performed by competitive immunoassay utilising the IP-One assay kit (CisBio, France). HEK293 cells were prepared as described above and then assayed as per the manufacturer’s protocol. Briefly, at the time of assay, the culture media was removed from cells, and then replaced with IP-One stimulation buffer (HEPES 10 mM, CaCl2 1 mM, MgCl2 0.5 mM, KCl 4.2 mM, NaCl 146 mM, glucose 5.5 mM, LiCl 50 mM, pH 7.4). Cells were allowed to equilibrate in the stimulation buffer at 37 °C for 15 min, followed by addition of peptide ligands (to final concentrations of 0.1 pM – 10 µM) for subsequent stimulation for 1 h at 37 °C. The stimulation was terminated by lysis and the simultaneous addition of homogenous time-resolved fluorescence resonance energy transfer reagents. The lysates were incubated for a minimum of 1 h at room temperature. Fluorescence emission measurements at 620 nm and 665 nm were performed using a FlexStation3 plate reader (Molecular Devices, Sunnyvale, CA) or Spark Multimode plate reader (Tecan, Männedorf, Switzerland) at an excitation wavelength of 340 nm. Results were analysed as a ratio of fluorescence intensities of 665 nm to 620 nm.
# Data from cellular assays were analysed using GraphPad Prism 7.03 (GraphPad Software, San Diego). Concentration-response data were fitted to three- or four-parameter logistic equations to derive estimates of potency (LogEC50) and efficacy (Emax), relative to the maximal inotocin control response. Data from agonist-antagonist interaction experiments were fit to a Schild regression analysis.
# [4] = tested on: T. castaneum inotocin receptor; assay: Antagonism of inotocin-mediated IP1 accumulation, Schild analysis; type: cell-based, Tribolium castaneum; conditions: HEK293, IP1
# Source text: as §1, with “After 4–6 h, cells were dissociated by trituration and replated into white opaque 384-well plates (CellStar®, Greiner, Kremsmünster, Austria) at approximately 10,000 cells per well. Cells were cultured for approximately 38–48 h in a humidified incubator at 37 °C and an atmosphere of 5% CO2, and then assayed for second messenger production.” left out
# as §2, with “France).” for “France). HEK293 cells were prepared as described above and then assayed as per the manufacturer’s protocol. Briefly, at the time of assay, the culture media was removed from cells, and then replaced with IP-One stimulation buffer (HEPES 10 mM, CaCl2 1 mM, MgCl2 0.5 mM, KCl 4.2 mM, NaCl 146 mM, glucose 5.5 mM, LiCl 50 mM, pH 7.4).”
# as §3
# [5] = tested on: HEK293 cells
# [6] = tested on: human oxytocin receptor; conditions: cited from earlier work
# Source text: (§4) Compared to the level of identity between the T. castaneum inotocin receptor and its human counterparts (approximately 37–40% similarity ...
# [7] = tested on: human vasopressin V1a receptor; conditions: cited from earlier work
# Source text: as §4
# [8] = molecular target: Lasius niger inotocin receptor (Lasius niger)
# [9] = molecular target: Tribolium castaneum inotocin receptor (Tribolium castaneum)
# [10] = T. castaneum receptor, IP1 accumulation, HEK293
# [11] = L. niger receptor, IP1 accumulation, HEK293
molecule,measurement,setting,value
oxytocin: reported agonist of the T. castaneum receptor,agonist activity at T. castaneum receptor (in words),[1],agonist
atosiban,agonist activity (in words),[2]; [10],lacked agonist activity
same,Emax,[3],89.9 ± 4.5 % inotocin max. response
same,LogEC50,[3],−5.81 ± 0.12 Log[M]
same,agonist activity (in words),[3]; [11],partial agonist
same,antagonism of inotocin (in words),[4]; dextral displacement of the inotocin concentration-response curve,competitively inhibits the T. castaneum inotocin receptor; also recorded: selectively antagonises the T. castaneum receptor
same,estimated functional affinity,"[4]; from Schild analysis (pA2), competitive antagonism of inotocin",approximately 93 nM
same,pA2,"[4]; inotocin 1 pM – 10 µM in absence or presence of 100 nM, 1 µM, 3 µM, 10 µM atosiban, Schild analysis, mean ± S.E.M. of three independent experiments in triplicate",7.03 ± 0.086
same,Schild Slope,"[4]; inotocin 1 pM – 10 µM in absence or presence of 100 nM, 1 µM, 3 µM, 10 µM atosiban, mean ± S.E.M. of three independent experiments in triplicate",1.00 ± 0.085
"kalata B7: plant-derived cyclic peptide (cyclotide) from Oldenlandia affinis, synthesised by Fmoc-SPPS and native chemical ligation (cyclo(GLPVCGETCTLGTCYTQGCTCSWPICKRN); also: oxidized form, disulfides not placed)",Emax,"[2]; HEK293 cells expressing T. castaneum receptor (C-terminal EGFP fusion), IP-One HTRF assay, 1 h at 37 °C, mean ± S.E.M. from at least three independent experiments in triplicate",60.3 ± 9.6 % inotocin max. response
same,LogEC50,"[2]; HEK293 cells expressing T. castaneum receptor (C-terminal EGFP fusion), IP-One HTRF assay, pH 7.4, 1 h at 37 °C, mean ± S.E.M. from at least three independent experiments in triplicate",−5.14 ± 0.22 Log[M]
same,agonist activity (in words),[2]; [10],weak partial agonist
same,EC50,"[2]; T. castaneum receptor, IP1 accumulation, HEK293, read-out: potency",7.2 µM
same,Emax,[3],86.5 ± 4.7 % inotocin max. response
same,LogEC50,[3],−5.66 ± 0.10 Log[M]
same,agonist activity (in words),[3]; [11],weak partial agonist
same,EC50,"[3]; L. niger receptor, IP1 accumulation, HEK293, read-out: potency",2.2 µM
same,effects on cell viability,[5],did not observe negative effects on cell viability
same,activity at human oxytocin receptor (in words),[6],partial agonist
same,activity at human vasopressin V1a receptor (in words),[7],partial agonist
B1,Emax of receptor-mediated IP1 accumulation in HEK293 cells expressing the L. niger inotocin receptor (the reference response) (% inotocin max. response),[8],100
same,LogEC50 of receptor-mediated IP1 accumulation in HEK293 cells expressing the L. niger inotocin receptor,[8],-10.2 Log[M]
same,Emax of receptor-mediated IP1 accumulation in HEK293 cells expressing the T. castaneum inotocin receptor (the reference response),[9],100%
same,LogEC50 of receptor-mediated IP1 accumulation in HEK293 cells expressing the T. castaneum inotocin receptor,[9],-9.63 Log[M]
B2,Emax of receptor-mediated IP1 accumulation in HEK293 cells expressing the L. niger inotocin receptor (% inotocin max. response),[8],86.5
same,LogEC50 of receptor-mediated IP1 accumulation in HEK293 cells expressing the L. niger inotocin receptor,[8],-5.66 Log[M]
same,Emax of receptor-mediated IP1 accumulation in HEK293 cells expressing the T. castaneum inotocin receptor (% inotocin max. response),[9],60.3
same,LogEC50 of receptor-mediated IP1 accumulation in HEK293 cells expressing the T. castaneum inotocin receptor,[9],-5.14 Log[M]
